This is an account of results in ChEMBL document CHEMBL1201862, “PubChem BioAssay data set” (2004).

In general, GI50 refers to the concentration at which growth is held to half of that of the control.

Molecules are shown by their SMILES.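 1) Cells in 96-well plates. 2) Compound, 48 h, 5 concentrations. 3) Linear interpolation between surrounding doses. 4) Unreached endpoint = highest concentration. The concentration for 50% growth inhibition is given as GI50.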 Activity calls are given as the source filed them. No stated cut-off is given here; in the data, active = GI50 up to about 1.1 µM and inactive = higher.

What all share (assay): DTP human tumour cell line panel, 48 h
In assay [1] the test system is NCI-H460.
The subject of assay [2] is NCI-H226.
Assay [3] deals with MCF7.
Assay [4] relates to PC-3.
Assay [5] relates to T47D.
For assay [6], the system named is ACHN.
The test system of assay [7] is NCI/ADR-RES.
Assay [8] deals with MDA-MB-435.
Assay [9] has as its system MDA-N.
Assay [10] deals with MDA-MB-231.
For assay [11], the system named is M14.
Assay [12] deals with TK-10.
The test system of assay [13] is XF498.
For assay [14], the system named is DMS-114.
The test system of assay [15] is M19-MEL.
Assay [16] deals with DLD-1.
The subject of assay [17] is DMS-273.
Assay [18] relates to HCC 2998.
Assay [19] relates to HOP-18.
In assay [20] the test system is KM-20L2.

As to `C[S+](C)([O-])=Nn1c(=O)n2n(c1=O)[C@H]1CC[C@@H]2C1`, the GI50 in assay [1], in assay [2], in [3], in assay [4], in assay [5] and in [6] was > 100 µM (inactive) each time. Besides, the GI50 in assay [7], in [8], in assay [9], in [10], in assay [11] and in assay [12] was > 100 µM (inactive) in each case.

As to `COC(=O)C1=C(OC(=O)/C=C/c2ccc(Cl)cc2)C(C(=O)OC)[C@@]2(O)[C@@H](C(=O)OC)[C@H](C)C[C@@H]1[C@@H]2C(=O)OC` (some centres not stated), the GI50 was 27.2 µM (inactive) in assay [1]; 20.7 µM (inactive) in assay [2]; 20.7 µM (inactive) in [4]; 26.1 µM (inactive) in [5]; 22.2 µM (inactive) in assay [6]; 21.6 µM (inactive) in assay [7]. The GI50 in [8] is 14.9 µM (inactive); in assay [9] it was 10.4 µM (inactive); in [10], 24.5 µM (inactive); in [11] it was 23.2 µM (inactive); in assay [12], 62.8 µM (inactive).

For `COc1cc(C2c3cc4c(cc3[C@@H](Nc3cnc5ccccc5c3)C3COC(=O)[C@H]23)OCO4)cc(OC)c1O` (some centres not stated), the GI50 in assay [13] is 0.474 µM (active); in assay [14], 0.277 µM (active); in [15], 0.422 µM (active); in assay [1], < 0.01 µM (active); in [2] it was 0.152 µM (active); in [3], 0.0834 µM (active). For the same compound, the GI50 in assay [16] was 1.05 µM (active); in assay [17], 0.047 µM (active); in assay [18] it was 0.794 µM (active); in [7], 1.51 µM (inactive); in [19], 0.34 µM (active); in assay [20], 1.47 µM (inactive).

Regarding `C[C@]12CC[C@H](O)C=C1CC[C@@H]1[C@@H]2CC[C@]2(C)C(c3ccc(=O)oc3)CC[C@]12O` (some centres not stated), the GI50 was 0.0184 µM (active) in assay [13]; 0.0129 µM (active) in assay [15]; 0.0132 µM (active) in assay [1]; 0.0375 µM (active) in assay [2]; 0.015 µM (active) in assay [3]; 0.0174 µM (active) in [16]. Moreover, the GI50 is 0.0125 µM (active) in assay [17]; 0.0372 µM (active) in assay [18]; 0.0328 µM (active) in assay [7]; 0.014 µM (active) in assay [19]; 0.0244 µM (active) in assay [20].

With `COc1cc(C2C(C(=O)O)=C(CO)Oc3cc4c(cc32)OCO4)cc(OC)c1OC` (configuration not stated), the GI50 in [13], in assay [14], in assay [15], in assay [1], in assay [16] and in [17] was > 100 µM (inactive) throughout. Also, the GI50 in [6] is > 100 µM (inactive); in assay [19], 77.1 µM (inactive); in [20], > 100 µM (inactive); in [11], > 100 µM (inactive); in [12], > 100 µM (inactive).

With `C=C1C(=O)OC2C1CC1OC2C(C)CCC/C(C)=C\CCC1(C)O` (configuration not stated), the GI50 was 12 µM (inactive) in assay [13]; 11.6 µM (inactive) in [14]; 10.1 µM (inactive) in assay [15]; 20.1 µM (inactive) in [1]; 18.4 µM (inactive) in assay [2]; 15.3 µM (inactive) in assay [3]. In addition, the GI50 in assay [16] is 18.7 µM (inactive); in assay [17] it was 16.2 µM (inactive); in assay [18], 20.3 µM (inactive); in assay [7], 14.4 µM (inactive); in [19], 10.6 µM (inactive); in [20], 29.7 µM (inactive).

As to `NCCCNCCSSCc1ccccc1CSSCCNCCCN`, the GI50 was 85.1 µM (inactive) in assay [13]; 57.3 µM (inactive) in [14]; 50 µM (inactive) in [15]; > 100 µM (inactive) in assay [1]; 44.4 µM (inactive) in assay [16]; > 100 µM (inactive) in [17]. The GI50 in assay [6] is 37 µM (inactive); in [18], 81.5 µM (inactive); in assay [19] it was > 100 µM (inactive); in assay [20], > 100 µM (inactive); in assay [11] it was 31.9 µM (inactive); in assay [12], > 100 µM (inactive).

Turning to `NC(=S)N/N=C1\c2ccccc2CCC1CCC1(O)CCc2ccccc2C1=O` (configuration not stated), the GI50 is 16 µM (inactive) in assay [1]; 17.8 µM (inactive) in [3]; 31 µM (inactive) in [4]; 4.04 µM (inactive) in assay [5]; 35.5 µM (inactive) in [6]; 13.8 µM (inactive) in assay [7]. Besides, the GI50 in [8] was 20.9 µM (inactive); in [9], 25.2 µM (inactive); in [10] it was 26.8 µM (inactive); in assay [11], 16.4 µM (inactive); in assay [12], 13.6 µM (inactive).

On to `CC(NC(C#N)CC12CC3CC(CC(C3)C1)C2)c1ccccc1` (configuration not stated), for which the GI50 in assay [1] is 26.5 µM (inactive); in assay [3], 48.9 µM (inactive); in assay [4], > 100 µM (inactive); in assay [5] it was 52 µM (inactive); in assay [6], 47.6 µM (inactive); in assay [18], > 100 µM (inactive). The GI50 in assay [7] is > 100 µM (inactive); in assay [8], > 100 µM (inactive); in [9], > 100 µM (inactive); in assay [10], 81.1 µM (inactive); in assay [11] it was 54.8 µM (inactive); in assay [12], > 100 µM (inactive).

Take `O=C(Nc1nc2ccc([N+](=O)[O-])cc2s1)C(=O)C(C(=O)c1ccccc1F)C1OC(=O)c2ccccc21` (configuration not stated): the GI50 in assay [13] was 48.3 µM (inactive); in assay [14], 25.1 µM (inactive); in [15], 31 µM (inactive); in assay [1] it was 40.5 µM (inactive); in assay [16] it was 41 µM (inactive); in assay [17] it was 33.7 µM (inactive). Further, the GI50 in assay [6] is 59.4 µM (inactive); in assay [18], 24.9 µM (inactive); in [20] it was 49.4 µM (inactive); in assay [11], 56.2 µM (inactive); in assay [12] it was 87.1 µM (inactive).

As for `CCN(CC)CCCNc1ncc(C)c2[nH]c3ccncc3c12`, the GI50 in assay [13] was 11.4 µM (inactive); in assay [14], 7.8 µM (inactive); in assay [15], 11.5 µM (inactive); in assay [1] it was 3.33 µM (inactive); in [2], 5.69 µM (inactive); in assay [3] it was 3.31 µM (inactive). The GI50 in assay [16] is 31 µM (inactive); in assay [17], 7.26 µM (inactive); in assay [18], 8.61 µM (inactive); in [7] it was > 100 µM (inactive); in assay [20] it was 6.24 µM (inactive).

As for `COc1ccc(C(=O)/C(Br)=C/C(=O)O)cc1`, the GI50 in assay [13] was 4.28 µM (inactive); in [14], 18.6 µM (inactive); in [15], 14.5 µM (inactive); in [1] it was 23.2 µM (inactive); in assay [2] it was 27.3 µM (inactive); in [3] it was 9.75 µM (inactive). Further, the GI50 in assay [16] was 12.6 µM (inactive); in assay [17] it was 9.82 µM (inactive); in assay [4], 29.7 µM (inactive); in assay [5], 53.2 µM (inactive); in [6], 55 µM (inactive); in assay [18], 19.2 µM (inactive). Also, the GI50 in [7] is 21.3 µM (inactive); in assay [8], 25.8 µM (inactive); in assay [19], 45.8 µM (inactive); in assay [20] it was 29.5 µM (inactive); in assay [9] it was 20 µM (inactive); in assay [10], 28.2 µM (inactive). The GI50 in assay [11] is 26.2 µM (inactive); in assay [12], 51.3 µM (inactive).

In the case of `CC1(C)N=C(N)N=C(N)N1c1ccc(OCCCOc2ccccc2)c(Cl)c1`, the GI50 is < 0.01 µM (active) in assay [13]; 0.076 µM (active) in [14]; 0.147 µM (active) in [15]; 0.0457 µM (active) in [1]; 0.798 µM (active) in assay [2]; 0.327 µM (active) in [3]. Besides, the GI50 was 1.51 µM (inactive) in assay [16]; 0.0262 µM (active) in assay [17]; 0.315 µM (active) in assay [18]; > 100 µM (inactive) in assay [7]; 0.67 µM (active) in [19]; 0.0715 µM (active) in assay [20].

Consider `CC(=O)C(C(=O)C(=O)Nc1cc(Cl)c(Cl)cc1Cl)c1csc(N)n1` (configuration not stated), for which the GI50 in [13], in assay [14], in assay [15], in assay [1], in assay [2] and in [16] was > 100 µM (inactive) each time. For the same compound, the GI50 in [17], in [6], in [18], in [20], in assay [11] and in assay [12] was > 100 µM (inactive) each time.

Turning to `CN(C)c1ccc(N2C(=S)SC(=N\c3ccccc3)/C2=N/c2ccccc2)cc1`, the GI50 is > 100 µM (inactive) in assay [1]; > 100 µM (inactive) in assay [2]; > 100 µM (inactive) in [3]; 37.8 µM (inactive) in assay [4]; > 100 µM (inactive) in assay [5]; > 100 µM (inactive) in [18]. For the same compound, the GI50 in [7], in assay [8], in assay [9], in assay [10] and in assay [11] was > 100 µM (inactive) each time.

Take `COc1ccc2c(c1)c1cc(OC)ccc1n2CCCCOc1ccc(-c2c3ccccc3c(-c3ccc(OCCCCn4c5ccc(OC)cc5c5cc(OC)ccc54)cc3)c3ccccc23)cc1`: the GI50 in assay [13], in assay [14], in assay [15], in assay [2], in assay [16] and in [17] was > 100 µM (inactive) in each case. Also, the GI50 in assay [6], in assay [18], in [20], in [11] and in assay [12] was > 100 µM (inactive) throughout.
